According to PubChem BioAssay AID248 (DTP/NCI, 2004):
Toxic doses and inconclusive results are not listed.

Test system: L1210 leukemia ip in BDF1 mice, survival T/C
Test: NCI In Vivo Anticancer Drug Screen. Data for tumor model L1210 Leukemia (intraperitoneal) in B6D2F1 (BDF1) mice
Conditions: endpoint: mean survival time, higher = longer survival
Summary of the method: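 Transplantable tumor model; survival measured in treated vs vehicle control mice. Value = treated/control.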

[1] = dose: 100.0 mg/kg/injection, schedule: Q01DX001 (ip), vehicle: Klucel (hydroxypropylcellulose) (HPC)
[2] = dose: 100.0 mg/kg/injection, schedule: Q04DX003 (ip), vehicle: Klucel (hydroxypropylcellulose) (HPC)
[3] = dose: 200.0 mg/kg/injection, schedule: Q01DX001 (ip), vehicle: Klucel (hydroxypropylcellulose) (HPC)
[4] = dose: 200.0 mg/kg/injection, schedule: Q04DX003 (ip), vehicle: Klucel (hydroxypropylcellulose) (HPC)
[5] = dose: 400.0 mg/kg/injection, schedule: Q01DX001 (ip), vehicle: Klucel (hydroxypropylcellulose) (HPC)
[6] = dose: 400.0 mg/kg/injection, schedule: Q04DX003 (ip), vehicle: Klucel (hydroxypropylcellulose) (HPC)
[7] = dose: 100.0 mg/kg/injection, schedule: Q01DX009 (ip), vehicle: Klucel (hydroxypropylcellulose) (HPC)
[8] = dose: 200.0 mg/kg/injection, schedule: Q01DX009 (ip), vehicle: Klucel (hydroxypropylcellulose) (HPC)
[9] = dose: 400.0 mg/kg/injection, schedule: Q01DX009 (ip), vehicle: Klucel (hydroxypropylcellulose) (HPC)

NC(=S)N/N=C(/C(=O)O)c1ccc([N+](=O)[O-])cc1
T/C [1]: 93 % of control | T/C [2]: 104 % of control | T/C [3]: 115 % of control | T/C [4]: 98 % of control | T/C [5]: 96 % of control | T/C [6]: 93 % of control

CN(CCC#N)c1ccc(/C=C(\C#N)c2ccc(Cl)cc2)cc1
T/C [7]: 102 % of control | T/C [8]: 103 % of control | T/C [9]: 105 % of control

O=C(CC(=O)c1cccc(NC(=O)CC(/C=C/C=C/CCCCCCCCCCCCCCCCC2CC(=O)OC2=O)C(=O)O)c1)Nc1ccccc1 (configuration not stated)
T/C (dose: 75.0 mg/kg/injection, schedule: Q04DX003 (ip), vehicle: Klucel (hydroxypropylcellulose) (HPC)): 94 % of control | T/C [1]: 90 % of control | T/C (dose: 150.0 mg/kg/injection, schedule: Q04DX003 (ip), vehicle: Klucel (hydroxypropylcellulose) (HPC)): 95 % of control | T/C [3]: 90 % of control | T/C (dose: 300.0 mg/kg/injection, schedule: Q04DX003 (ip), vehicle: Klucel (hydroxypropylcellulose) (HPC)): 103 % of control | T/C [5]: 87 % of control

C1=C(c2ccccc2)CCN(C2(c3ccccc3)CCCCC2)C1
T/C (dose: 100.0 mg/kg/injection, schedule: Q01DX001 (ip), vehicle: saline): 101 % of control | T/C (dose: 200.0 mg/kg/injection, schedule: Q01DX001 (ip), vehicle: saline): 93 % of control | T/C (dose: 400.0 mg/kg/injection, schedule: Q01DX001 (ip), vehicle: saline): 95 % of control

Oc1ccccc1OB(Oc1ccccc1O)N(CCCl)CCCl
T/C (dose: 100.0 mg/kg/injection, schedule: Q01DX001 (ip), vehicle: other): 111 % of control

COC(=O)c1cc([N+](=O)[O-])cc([N+](=O)[O-])c1Br
T/C (dose: 3.0 mg/kg/injection, schedule: Q01DX009 (ip), vehicle: saline with Tween-80): 100 % of control | T/C (dose: 6.0 mg/kg/injection, schedule: Q01DX009 (ip), vehicle: saline with Tween-80): 98 % of control | T/C (dose: 12.0 mg/kg/injection, schedule: Q01DX009 (ip), vehicle: saline with Tween-80): 98 % of control | T/C (dose: 12.5 mg/kg/injection, schedule: Q01DX009 (ip), vehicle: Klucel (hydroxypropylcellulose) (HPC)): 96 % of control | T/C (dose: 12.5 mg/kg/injection, schedule: Q04DX003 (ip), vehicle: Klucel (hydroxypropylcellulose) (HPC)): 100 % of control | T/C (dose: 25.0 mg/kg/injection, schedule: Q01DX009 (ip), vehicle: Klucel (hydroxypropylcellulose) (HPC)): 89 % of control | T/C (dose: 25.0 mg/kg/injection, schedule: Q04DX003 (ip), vehicle: Klucel (hydroxypropylcellulose) (HPC)): 94 % of control | T/C (dose: 50.0 mg/kg/injection, schedule: Q04DX003 (ip), vehicle: Klucel (hydroxypropylcellulose) (HPC)): 94 % of control

Nc1nc(-c2ccccc2)c(CCCNC(=O)c2ccc([N+](=O)[O-])cc2)c(=O)[nH]1
T/C [2]: 93 % of control | T/C [4]: 93 % of control | T/C [6]: 90 % of control

Cc1cc(C)n(C(=O)Nc2ccccc2)n1
T/C (dose: 100.0 mg/kg/injection, schedule: Q04DX002 (ip), vehicle: saline with Tween-80): 105 % of control | T/C (dose: 200.0 mg/kg/injection, schedule: Q04DX002 (ip), vehicle: saline with Tween-80): 100 % of control

CC1(C)N=C(c2ccccc2)C2(c3ccccc3)N1C2(C)C (configuration not stated)
T/C (dose: 6.0 mg/kg/injection, schedule: Q01DX001 (ip), vehicle: Klucel (hydroxypropylcellulose) (HPC)): 92 % of control | T/C (dose: 12.0 mg/kg/injection, schedule: Q01DX001 (ip), vehicle: Klucel (hydroxypropylcellulose) (HPC)): 101 % of control | T/C (dose: 25.0 mg/kg/injection, schedule: Q01DX001 (ip), vehicle: Klucel (hydroxypropylcellulose) (HPC)): 101 % of control

CCOC(=O)NC12c3ccccc3C(c3ccccc31)C(C(=O)O)C2C(=O)O (configuration not stated)
T/C (dose: 100.0 mg/kg/injection, schedule: Q04DX003 (ip), vehicle: saline sonified): 90 % of control | T/C (dose: 200.0 mg/kg/injection, schedule: Q04DX003 (ip), vehicle: saline sonified): 119 % of control | T/C (dose: 400.0 mg/kg/injection, schedule: Q04DX003 (ip), vehicle: saline sonified): 90 % of control

C(=N\N1CCN(/N=C/c2ccc3ccccc3n2)CC1)/c1ccc2ccccc2n1
T/C (dose: 100.0 mg/kg/injection, schedule: Q01DX001 (ip), vehicle: carboxymethylcellulose (CMC)): 89 % of control | T/C (dose: 200.0 mg/kg/injection, schedule: Q01DX001 (ip), vehicle: carboxymethylcellulose (CMC)): 86 % of control | T/C (dose: 400.0 mg/kg/injection, schedule: Q01DX001 (ip), vehicle: carboxymethylcellulose (CMC)): 94 % of control

O=C(Nc1cccc(C(F)(F)F)c1)Nc1cccc2ccc(O)cc12
T/C [7]: 107 % of control | T/C [8]: 106 % of control | T/C [9]: 98 % of control

CCCCc1ccc2nc(NC(=O)OC)[nH]c2c1
T/C (dose: 50.0 mg/kg/injection, schedule: Q01DX009 (oral), vehicle: saline with Tween-80): 99 % of control | T/C (dose: 100.0 mg/kg/injection, schedule: Q01DX009 (oral), vehicle: saline with Tween-80): 109 % of control | T/C (dose: 100.0 mg/kg/injection, schedule: Q04DX003 (oral), vehicle: saline with Tween-80): 105 % of control | T/C (dose: 200.0 mg/kg/injection, schedule: Q01DX009 (oral), vehicle: saline with Tween-80): 108 % of control | T/C (dose: 200.0 mg/kg/injection, schedule: Q04DX003 (ip), vehicle: saline): 172 % of control | T/C (dose: 200.0 mg/kg/injection, schedule: Q04DX003 (oral), vehicle: saline with Tween-80): 105 % of control | T/C (dose: 300.0 mg/kg/injection, schedule: Q04DX003 (ip), vehicle: saline): 160 % of control | T/C (dose: 400.0 mg/kg/injection, schedule: Q04DX003 (ip), vehicle: saline with Tween-80): 107 % of control | T/C (dose: 400.0 mg/kg/injection, schedule: Q04DX003 (oral), vehicle: saline with Tween-80): 114 % of control

Cn1nc(C(=O)O)c(=O)[nH]c1=O
T/C (dose: 100.0 mg/kg/injection, schedule: Q01DX Z (ip), vehicle: methylcellulose (MC)): 97 % of control

N#CC(C#N)=C/C=C/c1cccc([N+](=O)[O-])c1
T/C (dose: 38.0 mg/kg/injection, schedule: Q01DX009 (ip), vehicle: saline): 102 % of control

NC1CCS(=O)(=O)CC1
T/C (dose: 100.0 mg/kg/injection, schedule: Q01DX001 (ip), vehicle: water): 93 % of control | T/C (dose: 200.0 mg/kg/injection, schedule: Q01DX001 (ip), vehicle: water): 101 % of control | T/C (dose: 400.0 mg/kg/injection, schedule: Q01DX001 (ip), vehicle: water): 104 % of control

CC(=O)SCCNCCNC1CC2CCC1C2 (configuration not stated)
T/C (dose: 1.25 mg/kg/injection, schedule: Q01DX009 (ip), vehicle: saline): 94 % of control | T/C (dose: 2.5 mg/kg/injection, schedule: Q01DX009 (ip), vehicle: saline): 97 % of control | T/C (dose: 5.0 mg/kg/injection, schedule: Q01DX009 (ip), vehicle: saline): 100 % of control | T/C (dose: 7.2 mg/kg/injection, schedule: Q01DX009 (ip), vehicle: saline): 94 % of control | T/C (dose: 10.0 mg/kg/injection, schedule: Q01DX001 (ip), vehicle: saline): 92 % of control | T/C (dose: 10.0 mg/kg/injection, schedule: Q04DX003 (ip), vehicle: saline): 99 % of control | T/C (dose: 11.0 mg/kg/injection, schedule: Q01DX009 (ip), vehicle: saline): 92 % of control | T/C (dose: 16.5 mg/kg/injection, schedule: Q01DX009 (ip), vehicle: saline): 90 % of control | T/C (dose: 20.0 mg/kg/injection, schedule: Q01DX001 (ip), vehicle: saline): 90 % of control | T/C (dose: 23.0 mg/kg/injection, schedule: Q01DX009 (ip), vehicle: saline): 88 % of control | T/C (dose: 40.0 mg/kg/injection, schedule: Q01DX001 (ip), vehicle: saline): 95 % of control

ClC1=C(Cl)C2(Cl)C(COc3ccc(Cl)cc3)CC1(Cl)C2(Cl)Cl (configuration not stated)
T/C (dose: 50.0 mg/kg/injection, schedule: Q01DX009 (ip), vehicle: other): 91 % of control | T/C [7]: 94 % of control | T/C (dose: 100.0 mg/kg/injection, schedule: Q04DX003 (ip), vehicle: other): 109 % of control | T/C [8]: 96 % of control | T/C (dose: 200.0 mg/kg/injection, schedule: Q04DX003 (ip), vehicle: other): 104 % of control | T/C [9]: 96 % of control

CCCN(CCC)CCCOC(=O)c1ccc(N)cc1
T/C (dose: 25.0 mg/kg/injection, schedule: Q01DX009 (ip), vehicle: saline): 99 % of control | T/C (dose: 44.0 mg/kg/injection, schedule: Q04DX003 (ip), vehicle: saline): 86 % of control | T/C (dose: 50.0 mg/kg/injection, schedule: Q01DX009 (ip), vehicle: saline): 106 % of control | T/C (dose: 50.0 mg/kg/injection, schedule: Q04DX003 (ip), vehicle: saline): 104 % of control | T/C (dose: 66.0 mg/kg/injection, schedule: Q04DX003 (ip), vehicle: saline): 88 % of control | T/C (dose: 67.0 mg/kg/injection, schedule: Q04DX003 (ip), vehicle: saline): 93 % of control | T/C (dose: 100.0 mg/kg/injection, schedule: Q01DX009 (ip), vehicle: saline): 89 % of control
